# Assay results: paper PMC5061470, “Promiscuous targeting of bromodomains by bromosporine identifies BET proteins as master regulators of primary transcription response in leukemia” (Science Advances, 2016)
# Tests used:
# BRPF1B = BRPF1B (Homo sapiens, UniProt P55201); test: biochemical; type: binding
# BPTF = BPTF (Homo sapiens, UniProt Q12830); type: binding
# TAF1(1) = biological target: T1, TAF1(1) (Homo sapiens, UniProt P21675); type: binding
# T1 construct: Human BRDs were subcloned into bacteria-expressing vectors; made in house; host or cells: bacteria
# T1 sequence (P21675 1397-1505 limits assumed): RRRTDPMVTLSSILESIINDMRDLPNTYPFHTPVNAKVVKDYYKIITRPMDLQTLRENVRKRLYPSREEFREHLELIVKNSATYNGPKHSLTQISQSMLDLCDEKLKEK
# TAF1(2) = biological target: T2, TAF1(2) (Homo sapiens, UniProt P21675); type: binding
# T2 construct: Human BRDs were subcloned into bacteria-expressing vectors; made in house; host or cells: bacteria
# T2 sequence (P21675 1519-1628 limits assumed): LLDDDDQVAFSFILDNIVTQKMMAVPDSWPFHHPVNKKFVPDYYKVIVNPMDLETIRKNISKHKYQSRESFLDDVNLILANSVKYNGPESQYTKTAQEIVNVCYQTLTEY
# [1] = tested on: panel of 42 recombinant biotinylated BRDs; type: binding, human
# [2] = biological target: full-length GFP-tagged BRD9 in U2OS cells (Homo sapiens, UniProt Q9H8M2); type: cell-based
# NCI-60 tumor cell lines = type: cell-based, human
# K562 = type: cell-based, human
# alpha 1A (h) = alpha 1A (h) (Homo sapiens, UniProt P35348); test: biochemical; type: binding; settings: read-out: % Inhibition of Control Specific Binding
# alpha 1B (h) = alpha 1B (h) (Homo sapiens, UniProt P35368); test: biochemical; settings: read-out: % Inhibition of Control Specific Binding
# alpha 2A (h) = alpha 2A (h) (Homo sapiens, UniProt P08913); test: biochemical; settings: read-out: % Inhibition of Control Specific Binding
# Chain of alpha 2A (h) (P08913 whole entry): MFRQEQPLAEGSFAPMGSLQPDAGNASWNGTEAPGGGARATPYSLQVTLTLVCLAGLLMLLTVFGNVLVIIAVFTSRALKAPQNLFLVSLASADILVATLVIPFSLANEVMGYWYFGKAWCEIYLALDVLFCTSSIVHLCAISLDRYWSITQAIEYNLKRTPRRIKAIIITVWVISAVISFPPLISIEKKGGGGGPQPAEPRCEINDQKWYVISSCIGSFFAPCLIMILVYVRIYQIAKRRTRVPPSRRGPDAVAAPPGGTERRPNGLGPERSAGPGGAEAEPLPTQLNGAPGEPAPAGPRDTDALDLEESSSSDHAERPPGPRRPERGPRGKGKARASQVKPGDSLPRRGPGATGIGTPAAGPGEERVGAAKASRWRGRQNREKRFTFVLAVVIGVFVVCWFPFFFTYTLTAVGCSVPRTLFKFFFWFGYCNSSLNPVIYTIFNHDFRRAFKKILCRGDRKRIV
# beta 2 (h) = beta 2 (h) (Homo sapiens, UniProt P07550); test: biochemical; settings: read-out: % Inhibition of Control Specific Binding
# Chain of beta 2 (h) (P07550 whole entry): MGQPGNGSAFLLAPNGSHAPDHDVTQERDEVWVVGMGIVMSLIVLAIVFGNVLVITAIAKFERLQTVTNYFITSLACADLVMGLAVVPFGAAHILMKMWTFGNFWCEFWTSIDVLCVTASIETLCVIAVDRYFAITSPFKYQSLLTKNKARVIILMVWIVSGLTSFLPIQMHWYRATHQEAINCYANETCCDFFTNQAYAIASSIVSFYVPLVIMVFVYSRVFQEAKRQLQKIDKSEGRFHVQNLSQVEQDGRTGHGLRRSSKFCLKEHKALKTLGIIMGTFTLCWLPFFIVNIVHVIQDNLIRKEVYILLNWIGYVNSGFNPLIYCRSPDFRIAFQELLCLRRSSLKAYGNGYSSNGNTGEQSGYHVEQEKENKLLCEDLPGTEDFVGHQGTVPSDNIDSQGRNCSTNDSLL
# AT1 (h) = AT1 (h) (Homo sapiens, UniProt P30556); test: biochemical; settings: read-out: % Inhibition of Control Specific Binding
# Chain of AT1 (h) (P30556 whole entry): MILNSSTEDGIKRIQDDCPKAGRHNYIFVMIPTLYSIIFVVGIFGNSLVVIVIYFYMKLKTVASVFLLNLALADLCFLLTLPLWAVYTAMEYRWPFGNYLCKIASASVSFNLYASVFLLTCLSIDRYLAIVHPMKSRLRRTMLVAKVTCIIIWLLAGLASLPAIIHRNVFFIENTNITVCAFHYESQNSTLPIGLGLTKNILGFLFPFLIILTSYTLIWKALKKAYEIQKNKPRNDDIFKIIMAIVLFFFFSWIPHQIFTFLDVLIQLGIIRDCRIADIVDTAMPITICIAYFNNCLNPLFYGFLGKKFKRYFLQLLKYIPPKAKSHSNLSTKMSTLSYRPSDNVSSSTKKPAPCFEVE
# CB2 (h) = CB2 (h) (Homo sapiens, UniProt P34972); test: biochemical; settings: read-out: % Inhibition of Control Specific Binding
# CRF1 (h) = CRF1 (h) (Homo sapiens, UniProt P34998); test: biochemical; type: binding; settings: read-out: % Inhibition of Control Specific Binding
# D2S (h) = D2S (h) (Homo sapiens, UniProt P14416); test: biochemical; settings: read-out: % Inhibition of Control Specific Binding
# ETB (h) = ETB (h) (Homo sapiens, UniProt P24530); test: biochemical; settings: read-out: % Inhibition of Control Specific Binding
# [3] = biological target: GABAA1 (h) (alpha 1,beta 2,gamma 2) (Homo sapiens, UniProt P14867+P47870); test: biochemical; type: binding; settings: read-out: % Inhibition of Control Specific Binding
# CCR2 (h) = CCR2 (h) (Homo sapiens, UniProt P41597); test: CEREP binding, agonist radioligand; settings: read-out: % Inhibition of Control Specific Binding
# H4 (h) = H4 (h) (Homo sapiens, UniProt Q9H3N8); test: biochemical; type: binding; settings: read-out: % Inhibition of Control Specific Binding
# CysLT1 (LTD4) (h) = CysLT1 (LTD4) (h) (Homo sapiens, UniProt Q9Y271); test: biochemical; settings: read-out: % Inhibition of Control Specific Binding
# MCH1 (h) = MCH1 (h) (Homo sapiens, UniProt Q99705); test: biochemical; settings: read-out: % Inhibition of Control Specific Binding
# Chain of MCH1 (h) (Q99705 whole entry): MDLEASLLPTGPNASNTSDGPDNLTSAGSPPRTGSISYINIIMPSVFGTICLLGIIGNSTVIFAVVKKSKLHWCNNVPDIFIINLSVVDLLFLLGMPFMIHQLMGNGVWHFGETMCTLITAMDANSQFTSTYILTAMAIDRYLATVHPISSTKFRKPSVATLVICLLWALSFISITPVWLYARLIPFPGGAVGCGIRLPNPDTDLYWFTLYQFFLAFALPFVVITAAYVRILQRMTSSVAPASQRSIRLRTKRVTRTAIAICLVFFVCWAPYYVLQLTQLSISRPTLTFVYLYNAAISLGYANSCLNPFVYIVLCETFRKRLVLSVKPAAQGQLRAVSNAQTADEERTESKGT
# MC1 = MC1 (Mus musculus, UniProt Q01727); test: biochemical; settings: read-out: % Inhibition of Control Specific Binding
# Chain of MC1 (Q01727 whole entry): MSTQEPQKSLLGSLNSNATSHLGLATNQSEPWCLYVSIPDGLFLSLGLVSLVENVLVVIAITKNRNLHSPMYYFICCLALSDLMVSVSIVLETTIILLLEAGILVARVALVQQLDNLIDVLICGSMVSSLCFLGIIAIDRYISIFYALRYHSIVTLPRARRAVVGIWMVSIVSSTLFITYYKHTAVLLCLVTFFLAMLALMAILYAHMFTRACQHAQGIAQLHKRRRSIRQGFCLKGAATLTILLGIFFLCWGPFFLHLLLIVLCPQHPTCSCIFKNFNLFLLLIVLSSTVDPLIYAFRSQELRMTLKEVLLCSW
# M4 (h) = M4 (h) (Homo sapiens, UniProt P08173); test: biochemical; settings: read-out: % Inhibition of Control Specific Binding
# Y1 (h) = Y1 (h) (Homo sapiens, UniProt P25929); test: biochemical; settings: read-out: % Inhibition of Control Specific Binding
# Chain of Y1 (h) (P25929 whole entry): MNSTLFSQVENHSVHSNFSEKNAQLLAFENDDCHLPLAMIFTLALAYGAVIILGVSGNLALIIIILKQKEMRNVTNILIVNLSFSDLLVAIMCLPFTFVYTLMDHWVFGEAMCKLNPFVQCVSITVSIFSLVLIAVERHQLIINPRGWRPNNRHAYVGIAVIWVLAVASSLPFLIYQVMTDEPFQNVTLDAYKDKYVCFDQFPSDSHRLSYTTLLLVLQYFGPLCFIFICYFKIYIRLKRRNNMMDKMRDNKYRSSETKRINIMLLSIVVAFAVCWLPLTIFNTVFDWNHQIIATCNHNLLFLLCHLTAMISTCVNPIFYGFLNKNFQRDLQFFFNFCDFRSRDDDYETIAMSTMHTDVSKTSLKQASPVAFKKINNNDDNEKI
# [4] = biological target: N neuronal alpha 4beta 2 (h) (Homo sapiens, UniProt P17787+P43681); test: biochemical; settings: read-out: % Inhibition of Control Specific Binding
# N muscle-type (h) = N muscle-type (h) (Homo sapiens, UniProt P02708+P07510+Q07001); test: biochemical; settings: read-out: % Inhibition of Control Specific Binding
# Chain of N muscle-type (h) (P07510 23-517): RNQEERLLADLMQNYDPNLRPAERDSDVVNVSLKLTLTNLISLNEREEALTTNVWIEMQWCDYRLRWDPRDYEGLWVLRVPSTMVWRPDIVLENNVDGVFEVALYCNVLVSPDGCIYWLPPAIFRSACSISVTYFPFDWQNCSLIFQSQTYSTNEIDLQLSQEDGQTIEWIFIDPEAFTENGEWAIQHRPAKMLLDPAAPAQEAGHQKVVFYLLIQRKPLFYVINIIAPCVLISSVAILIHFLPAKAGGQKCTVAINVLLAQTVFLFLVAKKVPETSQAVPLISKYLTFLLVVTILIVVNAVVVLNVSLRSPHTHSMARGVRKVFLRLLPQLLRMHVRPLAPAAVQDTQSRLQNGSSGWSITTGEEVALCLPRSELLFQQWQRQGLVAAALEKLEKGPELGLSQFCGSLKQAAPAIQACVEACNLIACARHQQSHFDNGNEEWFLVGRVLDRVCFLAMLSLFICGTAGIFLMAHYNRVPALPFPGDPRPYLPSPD
# Chain of N muscle-type (h) (Q07001 22-517): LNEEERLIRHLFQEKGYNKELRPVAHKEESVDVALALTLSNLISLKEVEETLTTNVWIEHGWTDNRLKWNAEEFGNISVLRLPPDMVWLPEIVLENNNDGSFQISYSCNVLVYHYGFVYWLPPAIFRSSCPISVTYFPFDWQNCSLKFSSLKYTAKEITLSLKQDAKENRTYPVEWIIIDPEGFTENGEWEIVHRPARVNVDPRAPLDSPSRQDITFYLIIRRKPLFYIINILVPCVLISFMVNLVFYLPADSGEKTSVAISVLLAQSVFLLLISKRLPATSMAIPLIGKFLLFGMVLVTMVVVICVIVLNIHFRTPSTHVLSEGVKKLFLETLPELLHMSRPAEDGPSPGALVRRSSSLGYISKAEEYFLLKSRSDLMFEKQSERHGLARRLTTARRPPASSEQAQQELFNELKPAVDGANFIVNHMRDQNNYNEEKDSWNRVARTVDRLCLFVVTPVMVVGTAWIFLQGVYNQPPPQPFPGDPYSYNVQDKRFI
# Chain of N muscle-type (h) (P02708 21-457): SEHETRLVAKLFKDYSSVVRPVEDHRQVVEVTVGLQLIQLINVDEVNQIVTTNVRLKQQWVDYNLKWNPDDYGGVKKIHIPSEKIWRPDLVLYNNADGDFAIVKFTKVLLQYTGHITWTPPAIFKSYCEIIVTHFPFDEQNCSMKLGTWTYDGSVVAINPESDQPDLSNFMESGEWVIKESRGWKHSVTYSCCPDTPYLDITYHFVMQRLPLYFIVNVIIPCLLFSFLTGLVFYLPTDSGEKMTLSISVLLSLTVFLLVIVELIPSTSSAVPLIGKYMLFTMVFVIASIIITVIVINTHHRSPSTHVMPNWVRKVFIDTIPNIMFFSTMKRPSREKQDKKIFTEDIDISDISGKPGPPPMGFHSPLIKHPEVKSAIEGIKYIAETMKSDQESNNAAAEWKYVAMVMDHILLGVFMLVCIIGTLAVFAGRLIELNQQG
# Chain of N muscle-type (h) (P11230 24-501, further chain): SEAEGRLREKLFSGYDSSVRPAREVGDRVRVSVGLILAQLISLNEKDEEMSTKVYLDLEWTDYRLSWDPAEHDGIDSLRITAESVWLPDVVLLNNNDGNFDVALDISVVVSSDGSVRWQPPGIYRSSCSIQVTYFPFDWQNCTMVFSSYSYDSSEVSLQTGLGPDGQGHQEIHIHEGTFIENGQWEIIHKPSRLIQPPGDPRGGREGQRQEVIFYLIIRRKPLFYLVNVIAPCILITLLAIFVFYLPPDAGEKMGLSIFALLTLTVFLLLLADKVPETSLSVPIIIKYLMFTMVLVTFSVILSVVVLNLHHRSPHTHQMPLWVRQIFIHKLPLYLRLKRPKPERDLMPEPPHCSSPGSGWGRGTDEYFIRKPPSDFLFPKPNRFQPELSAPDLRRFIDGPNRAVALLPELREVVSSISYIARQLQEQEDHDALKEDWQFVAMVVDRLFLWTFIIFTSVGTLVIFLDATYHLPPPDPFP
# PCP = type: binding
# [5] = biological target: Ca2+ channel (L, dihydropyridine site) (Rattus norvegicus, UniProt P22002); test: biochemical; settings: read-out: % Inhibition of Control Specific Binding
# GABA transporter = type: binding
# BRD2(1) = BRD2(1) (Homo sapiens, UniProt P25440)
# Chain of BRD2(1) (P25440 74-180 limits assumed): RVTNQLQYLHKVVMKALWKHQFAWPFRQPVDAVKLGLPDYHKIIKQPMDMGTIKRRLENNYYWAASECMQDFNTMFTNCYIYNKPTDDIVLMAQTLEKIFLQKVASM
# BRD4(2) = BRD4(2) (Homo sapiens, UniProt O60885)
# D1 (h) = D1 (h) (Homo sapiens, UniProt P21728); test: biochemical; settings: read-out: % Inhibition of Control Specific Binding
# ETA (h) = ETA (h) (Homo sapiens, UniProt P25101); test: biochemical; settings: read-out: % Inhibition of Control Specific Binding
# Chain of ETA (h) (P25101 21-427): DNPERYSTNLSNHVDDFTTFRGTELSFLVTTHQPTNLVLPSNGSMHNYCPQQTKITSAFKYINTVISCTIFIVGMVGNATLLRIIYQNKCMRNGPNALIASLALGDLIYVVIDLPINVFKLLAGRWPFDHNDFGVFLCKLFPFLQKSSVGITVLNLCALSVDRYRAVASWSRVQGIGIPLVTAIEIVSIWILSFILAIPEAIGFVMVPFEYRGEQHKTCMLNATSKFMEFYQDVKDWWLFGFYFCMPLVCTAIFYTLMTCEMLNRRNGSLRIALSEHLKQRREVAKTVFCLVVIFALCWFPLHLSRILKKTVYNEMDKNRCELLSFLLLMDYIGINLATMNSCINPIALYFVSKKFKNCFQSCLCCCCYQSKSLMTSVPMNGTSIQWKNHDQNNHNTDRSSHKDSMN
# PPARgamma (h) = PPARgamma (h) (Homo sapiens, UniProt P37231); test: biochemical; settings: read-out: % Inhibition of Control Specific Binding
# 5-HT1B = 5-HT1B (Rattus norvegicus, UniProt P28564); test: biochemical; settings: read-out: % Inhibition of Control Specific Binding
# Chain of BRPF1B (P55201 628-732): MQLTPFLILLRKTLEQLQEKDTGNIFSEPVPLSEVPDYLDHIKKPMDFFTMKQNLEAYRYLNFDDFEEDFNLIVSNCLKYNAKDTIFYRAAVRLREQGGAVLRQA
smiles,measurement,setting,value
"CCOC(=O)Nc1cc(-c2ccc(C)c(NS(C)(=O)=O)c2)nn2c(C)nnc12 [BSP, ethyl (3-methyl-6-(4-methyl-3-(methylsulfonamido)phenyl)-[1,2,4]triazolo[4,3-b]pyridazin-8-yl)carbamate]",Kd,BRPF1B,312 ± 11.2 nM
same,N,BRPF1B,1.00 ± 0.003
same,TΔS,BRPF1B,2.45 kcal/mol
same,ΔG,BRPF1B,-8.57 kcal/mol
same,ΔH^obs,BRPF1B,-6.12 ± 0.021 kcal/mol
same,N,BPTF,1.07 ± 0.005
same,TΔS,BPTF,-3.28 kcal/mol
same,ΔH^obs,BPTF,-10.09 ± 0.074 kcal/mol
same,N,TAF1(1),0.98 ± 0.010
same,TΔS,TAF1(1),3.60 kcal/mol
same,ΔG,TAF1(1),-6.94 kcal/mol
same,ΔH^obs,TAF1(1),-3.34 ± 0.046 kcal/mol
same,N,TAF1(2),0.98 ± 0.003
same,TΔS,TAF1(2),-3.80 kcal/mol
same,ΔG,TAF1(2),-10.25 kcal/mol
same,ΔH^obs,TAF1(2),-14.05 ± 0.095 kcal/mol
same,binding by BLI,[1],broad activity against the BRDs of diverse families
same,"FRAP, chromatin interaction of BRD9",[2],displacement of proteins from chromatin
same,growth inhibition,NCI-60 tumor cell lines,strong growth inhibition
same,effect on cell proliferation,K562,No significant effect
same,inhibition at 10 µM,alpha 1A (h),7%
same,inhibition at 10 µM,alpha 1B (h),3%
same,inhibition at 10 µM,alpha 2A (h),7%
same,inhibition at 10 µM,beta 2 (h),2%
same,inhibition at 10 µM,AT1 (h),-1%
same,inhibition at 10 µM,CB2 (h),12%
same,inhibition at 10 µM,CRF1 (h),-50%
same,inhibition at 10 µM,D2S (h),-9%
same,inhibition at 10 µM,ETB (h),-15%
same,inhibition at 10 µM,[3],11%
same,inhibition at 10 µM,CCR2 (h),-8%
same,inhibition at 10 µM,H4 (h),1%
same,inhibition at 10 µM,CysLT1 (LTD4) (h),-20%
same,inhibition at 10 µM,MCH1 (h),17%
same,inhibition at 10 µM,MC1,2%
same,inhibition at 10 µM,M4 (h),-6%
same,inhibition at 10 µM,Y1 (h),-10%
same,inhibition at 10 µM,[4],-7%
same,inhibition at 10 µM,N muscle-type (h),-7%
same,% Inhibition of Control Specific Binding,PCP,-6
same,inhibition at 10 µM,[5],-4%
same,% Inhibition of Control Specific Binding,GABA transporter,0
same,N,BRD2(1),1.00 ± 0.003
same,TΔS,BRD2(1),1.34 kcal/mol
same,ΔG,BRD2(1),-9.25 kcal/mol
same,ΔH^obs,BRD2(1),-7.90 ± 0.034 kcal/mol
same,N,BRD4(2),0.94 ± 0.001
same,TΔS,BRD4(2),3.17 kcal/mol
same,ΔG,BRD4(2),-9.77 kcal/mol
same,ΔH^obs,BRD4(2),-6.60 ± 0.018 kcal/mol
same,inhibition at 10 µM,D1 (h),-13%
same,inhibition at 10 µM,ETA (h),-1%
same,inhibition at 10 µM,PPARgamma (h),3%
same,inhibition at 10 µM,5-HT1B,-13%
